In the supplement of paper PMC8149375:

Assays:
Conditions in all cases: treatment: drug alone; 5 days
[1] = tested on: 769-P; test: AUC of dose-response viability curve, drug alone (arbitrary (AUC of normalised viability)); higher = less growth inhibition
Procedure: (§1)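 Primary HTS: 8 RCC cell lines treated with 8 doses (up to 10 uM) of each library drug alone for 5 days; viability read by CellTiter-Glo and normalised to DMSO. GI50 was fitted with XLfit (4-parameter), AUC is the area under the dose-response curve, and minimum viability is the lowest fraction of DMSO viability across doses.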

[2] = tested on: CAKI-1; test: as above
Procedure: as §1

[3] = tested on: ACHN; test: as above
Procedure: as §1

[4] = tested on: TK-10; test: as above
Procedure: as §1

[5] = tested on: UO-31; test: as above
Procedure: as §1

[6] = tested on: SN12C; test: as above
Procedure: as §1

[7] = tested on: 786-O; test: as above
Procedure: as §1

[8] = tested on: A498; test: as above
Procedure: as §1

[9] = tested on: 769-P; test: GI50, drug alone; higher = less potent
Procedure: as §1

[10] = tested on: CAKI-1; test: GI50, drug alone; higher = less potent
Procedure: as §1

[11] = tested on: ACHN; test: GI50, drug alone; higher = less potent
Procedure: as §1

[12] = tested on: TK-10; test: GI50, drug alone; higher = less potent
Procedure: as §1

[13] = tested on: UO-31; test: GI50, drug alone; higher = less potent
Procedure: as §1

[14] = tested on: SN12C; test: GI50, drug alone; higher = less potent
Procedure: as §1

[15] = tested on: 786-O; test: GI50, drug alone; higher = less potent
Procedure: as §1

[16] = tested on: A498; test: GI50, drug alone; higher = less potent
Procedure: as §1

[17] = tested on: 769-P; test: minimum viability across doses, drug alone, relative to DMSO (fraction); higher = less growth inhibition
Procedure: as §1

[18] = tested on: CAKI-1; test: as above
Procedure: as §1

[19] = tested on: ACHN; test: as above
Procedure: as §1

[20] = tested on: TK-10; test: as above
Procedure: as §1

[21] = tested on: UO-31; test: as above
Procedure: as §1

[22] = tested on: SN12C; test: as above
Procedure: as §1

[23] = tested on: 786-O; test: as above
Procedure: as §1

[24] = tested on: A498; test: as above
Procedure: as §1

Compound | AUC of dose-response viability curve [1] | AUC of dose-response viability curve [2] | AUC of dose-response viability curve [3] | AUC of dose-response viability curve [4] | AUC of dose-response viability curve [5] | AUC of dose-response viability curve [6] | AUC of dose-response viability curve [7] | AUC of dose-response viability curve [8] | GI50, drug alone [9] [µM] | GI50, drug alone [10] [µM] | GI50, drug alone [11] [µM] | GI50, drug alone [12] [µM] | GI50, drug alone [13] [µM] | GI50, drug alone [14] [µM] | GI50, drug alone [15] [µM] | GI50, drug alone [16] [µM] | minimum viability across doses [17] | minimum viability across doses [18] | minimum viability across doses [19] | minimum viability across doses [20] | minimum viability across doses [21] | minimum viability across doses [22] | minimum viability across doses [23] | minimum viability across doses [24]
O=C(NOC[C@H](O)CO)c1ccc(F)c(F)c1Nc1ccc(I)cc1F | 2.27 | 1.95 | 2.15 | 2.1 | 2.63 | 2.31 | 1.88 | 2.54 | 0.928 | 0.32 | 0.857 | 0.848 | 3.24 | 2.34 | 0.221 | 3.71 | 0.282 | 0.161 | 0.359 | 0.348 | 0.257 | 0.389 | 0.373 | 0.455
Nc1nc(N)c2nc(-c3cccc(O)c3)cnc2n1 | 3.59 | 3.43 | 3.02 | 2.98 | 4.59 | 2.97 | 2.45 | 3.31 | > 10 | 6.29 | 5.79 | 5.11 | > 10 | 3.88 | 2.47 | 9.22 | 0.971 | 0.275 | 0.35 | 0.32 | 0.588 | 0.254 | 0.0664 | 0.252
Cn1cnc(N)c2ncnc1-2 [3-Methyladenine] | 3.6 | 3.74 | 3.25 | 2.77 | 4.92 | 3.65 | 2.67 | 3.89 | > 10 | > 10 | > 10 | > 10 | > 10 | > 10 | > 10 | > 10 | 0.947 | 0.991 | 0.879 | 0.696 | 1.12 | 0.961 | 0.618 | 1.04
COc1cc(Nc2ncc3c(n2)-c2ccc(Cl)cc2C(c2c(F)cccc2OC)=NC3)ccc1C(=O)O [MLN8237 (Alisertib)] | 2.44 | 2.31 | 1.81 | 2.78 | 3.14 | 2.85 | 1.47 | 3.27 | 0.888 | 0.67 | 0.207 | 7.87 | > 10 | 3.14 | 0.0711 | > 10 | 0.316 | 0.221 | 0.194 | 0.492 | 0.531 | 0.458 | 0.0512 | 0.569
Cc1cc2c(F)c(Oc3ncnn4cc(OC[C@@H](C)OC(=O)[C@H](C)N)c(C)c34)ccc2[nH]1 | 3.33 | 3.29 | 2.61 | 3.26 | 3.77 | 3.35 | 2.99 | 3.68 | > 10 | > 10 | 8.45 | > 10 | 9.72 | > 10 | 8.62 | > 10 | 0.818 | 0.605 | 0.417 | 0.637 | 0.458 | 0.75 | 0.358 | 0.898
Cn1cc(C2=C(c3cn(C4CCN(Cc5ccccn5)CC4)c4ccccc34)C(=O)NC2=O)c2ccccc21 | 3.34 | 3.55 | 3.3 | 3.24 | 4.69 | 3.33 | 3.23 | 4.23 | > 10 | > 10 | > 10 | > 10 | > 10 | > 10 | > 10 | > 10 | 0.834 | 0.814 | 0.863 | 0.698 | 0.922 | 0.861 | 0.805 | 1.1
CC(C)n1nc(-c2ccc3oc(N)nc3c2)c2c(N)ncnc21 [INK 128] | 1.34 | 1.12 | 0.901 | 0.931 | 0.778 | 1.27 | 0.69 | 1.63 | 0.0504 | 0.0344 | 0.0152 | 0.012 | 0.0252 | 0.039 | 0.00665 | 0.071 | 0.0864 | 0.0368 | 0.0484 | 0.0249 | 0.00678 | 0.0865 | 0.00552 | 0.104
O=C1NC(=O)/C(=C/c2ccc3nccnc3c2)S1 | 3.39 | 3.43 | 3.28 | 3.3 | 4.01 | 3.19 | 3.04 | 3.39 | > 10 | > 10 | > 10 | > 10 | > 10 | > 10 | > 10 | > 10 | 0.891 | 0.648 | 0.837 | 0.802 | 0.902 | 0.805 | 0.651 | 0.869
N#CC[C@H](C1CCCC1)n1cc(-c2ncnc3[nH]ccc23)cn1 | 3.4 | 3.82 | 3.14 | 3.2 | 4.92 | 3.53 | 3.06 | 4.75 | > 10 | > 10 | > 10 | > 10 | > 10 | > 10 | 8.76 | > 10 | 0.876 | 0.965 | 0.779 | 0.833 | 1.25 | 0.945 | 0.433 | 1.24
